Laboratory results from patent US11639364B2, “Potent sialyltransferase inhibitors” (STICHTING RADBOUD UNIVERSITEIT, priority 2018, dated 2023).
Where two headings read alike, the source gives them in different places.

Key:
B16-F10 cells = test: Inhibition of cell surface sialylation, lectin staining and flow cytometry, B16-F10 cells; type: cell-based, Mouse; details: Mus musculus, 72 h, three days
Description: (§1) Mouse B16-F10 melanoma cells (ATCC CRL-6475) were cultured in Minimum Essential Medium (MEM) (Gibco, Invitrogen, Carlsbad, Calif.) containing 5% fetal bovine serum (FBS) (Greiner Bio-one, Frickenhausen, Germany), 1% MEM non-essential amino acids (Gibco), 0.15% sodium bicarbonate (Gibco), 1 mM sodium pyruvate (Gibco), 1.5% MEM vitamins (Gibco), 1% antibiotic-antimycotic solution (50 U/ml penicillin, 50 μg/ml streptomycin and 125 ng/ml amphotericin B) (Gibco). The murine 9464D neuroblastoma cell line was cultured in Dulbecco's Modified Eagle's Medium (DMEM, Glutamax, Gibco) with 10% FBS, 1% non-essential amino acids, 50 μM 2-mercaptoethanol (Sigma-Aldrich) and 1% antibiotic-antimycotic solution (Kroesen et al., 2014, DOI: 10.1002/ijc.28463, Stauffer et al., 2012, DOI: 10.3109/07357907.2012.664670). The murine EL4 T lymphocyte cell line (ATCC TIB-39) was cultured in Iscove's Modified Dulbecco's Medium (IMDM, Gibco) supplemented with 5% FBS and 1% antibiotic-antimycotic solution. Human HEK293 (ATCC CRL-1573) kidney cells and human HeLa (ATCC CCL-2) cervical cancer cells were cultured in DMEM containing 10% FBS, 2 mM glutamine (Lonza, Walkersville, Md.) and 1% antibiotic-antimycotic solution. Human monocytic THP-1 cells (TIB-202, ATCC) were cultured in RRMI-1640 medium (Gibco) supplemented with 10% FBS, 2 mM glutamine and 1% antibiotic-antimycotic solution. All cell lines were cultured in a humidified 5% CO2 incubator at 37° C.
(§2) To assess the effect of the synthesized compounds on cell surface sialylation, different murine and human cell lines were cultured for three days in the presence of 0-204.8 μM amide and carbamate fluorine sialic acids. Cells treated with an equal final percentage of DMSO were used as control and all cells were subjected to lectin staining and flow cytometry as described below. To investigate the longevity of the effect of the fluorine sialic acids on cell surface sialylation, B16-F10 cells treated with 25.6 μM or 51.2 μM were thoroughly washed with medium to remove fluorine sialic acids from the culture and reseeded. During a period of six days, cells were harvested every day and sialylation was assessed by flow cytometry.
(§3) For the lectin staining, all cells were harvested and washed with 1× carbo-free blocking solution (Vector Laboratories, Inc., Burlingame, Calif., USA) and stained for 45 minutes at 4° C. in 1× carbo-free blocking solution containing 1 mM CaCl2), 1 mM MgCl2 and biotinylated MALII (5 μg/ml), SNA-1 (1 μg/ml) or PNA (5 μg/ml) all obtained from Vector Laboratories Inc. MALII recognizes α2,3-linked sialic acids, SNA-1 recognizes α2,6-linked sialic acids and PNA binds to terminal 3-galactose. In addition, B16-F10 cells were stained with 2 μg/ml biotinylated AAL (α-linked Fucose), LCA (α-linked Mannose), PHA-L (complex glycans), GSL-I (α-linked Galactose and N-Acetylgalactosamine), WGA (chitobiose), SJA (β-linked Galactose and N-Acetylgalactosamine) and PSA (Glucose and Mannose) purchased from Vector Laboratories Inc. Next, the cells were washed thrice in PBA (1×PBS, 1% BSA, and 0.02% sodium azide) and stained for 10 minutes at 4° C. with 2 μg/ml streptavidin-phycoerythrin (PE) (BD Pharmingen, Franklin Lakes, N.J., USA). The cells were washed thrice again with PBA and fluorescence was assessed using a CyAn ADP flow cytometer (BD Biosciences, San Jose, Calif.) followed by analysis with FlowJo software (Tree Star Inc., Ashland, Oreg.). Untreated cells stained with streptavidin-PE only served as background fluorescence control. The percentages lectin binding was calculated by normalizing the mean fluorescence intensity values from the treated cells with the DMSO controls.
(§4) IC50 values and statistics were calculated using Prism 5.03 (GraphPad Software, Inc., La Jolla, Calif.). Statistical significance between the different groups was calculated using one-way ANOVA followed by Bonferroni post-hoc testing and P-values<0.05 were considered significant (p<0.05 *, p<0.01 **, p<0.001 ***). […]

9464D cells = test: Inhibition of cell surface sialylation, lectin staining and flow cytometry, 9464D cells; type: cell-based, murine; details: Mus musculus, 72 h, three days
Description: as §1, §2, §3, §4

THP-1 cells = test: Inhibition of cell surface sialylation, lectin staining and flow cytometry, THP-1 cells; type: cell-based, Human; details: Homo sapiens, 72 h, three days
Description: as §1, §2, §3, §4

HEK293 cells = test: Inhibition of cell surface sialylation, lectin staining and flow cytometry, HEK293 cells; type: cell-based, Human; details: Homo sapiens, 72 h, three days
Description: as §1, §2, §3, §4

EL4 cells = test: Inhibition of cell surface sialylation, lectin staining and flow cytometry, EL4 cells; type: cell-based, murine; details: Mus musculus, 72 h, three days
Description: as §1, §2, §3, §4

HeLa cells = test: Inhibition of cell surface sialylation, lectin staining and flow cytometry, HeLa cells; type: cell-based, human; details: Homo sapiens, 72 h, three days
Description: as §1, §2, §3, §4

[1] = MALII lectin binding, read-out: α2,3-Sia IC50
[2] = SNA-I lectin binding, read-out: α2,6-Sia IC50

| SMILES | IC50 (B16-F10 cells; [1]) [µM] | IC50 (B16-F10 cells; [2]) [µM] | IC50 (9464D cells; [1]) [µM] | IC50 (9464D cells; [2]) [µM] | IC50 (THP-1 cells; [1]) [µM] | IC50 (THP-1 cells; [2]) [µM] | IC50 (HEK293 cells; [1]) [µM] | IC50 (HEK293 cells; [2]) [µM] | IC50 (EL4 cells; [1]) [µM] | IC50 (EL4 cells; [2]) [µM] | IC50 (HeLa cells; [1]) [µM] | IC50 (HeLa cells; [2]) [µM] |
| --- | --- | --- | --- | --- | --- | --- | --- | --- | --- | --- | --- | --- |
| COC(=O)C1(OC(C)=O)OC([C@H](OC(C)=O)[C@@H](COC(C)=O)OC(C)=O)[C@H](NC(=O)OCc2ccccc2)C(OC(C)=O)C1F (stereo partly drawn) [SiaFCbz, Methyl 5-(benzylcarbamado)-2,4,7,8,9-penta-O-acetyl-3,5-dideoxy-3-fluoro-D-glycero-β-galacto-non-2-ulopyranosonate, reference compound] | 14.5 ± 3.51 | – | – | – | – | – | – | – | – | – | – | – |
| COC(=O)C1(OC(C)=O)OC([C@H](OC(C)=O)[C@@H](COC(C)=O)OC(C)=O)[C@H](NC(=O)CN=[N+]=[N-])C(OC(C)=O)C1F (stereo partly drawn) [SiaFAz, Methyl 5-(azidoacetamido)-2,4,7,8,9-penta-O-acetyl-3,5-dideoxy-3-fluoro-D-glycero-β-galacto-non-2-ulopyranosonate, reference compound] | 19.9 ± 2.08 | 32.8 ± 3.55 | > 102 | > 102 | 10.9 ± 1.98 | 13.2 ± 3.02 | 45.6 ± 5.14 | 47.2 ± 2.89 | > 102 | > 102 | 80.6 ± 3.26 | 42.2 ± 8.42 |
| COCCOC(=O)N[C@@H]1C(OC(C)=O)C(F)C(OC(C)=O)(C(=O)OC)OC1[C@H](OC(C)=O)[C@@H](COC(C)=O)OC(C)=O (stereo partly drawn) [SiaFMox, Methyl 5-(2-methoxy-ethylcarbamado)-2,4,7,8,9-penta-O-acetyl-3,5-dideoxy-3-fluoro-D-glycero-R-galacto-non-2-ulopyranosonate] | 25.5 ± 2.53 | 32.4 ± 1.38 | – | – | – | – | – | – | – | – | – | – |
| COC(=O)C1(OC(C)=O)OC([C@H](OC(C)=O)[C@@H](COC(C)=O)OC(C)=O)[C@H](NC(=O)OCC(C)C)C(OC(C)=O)C1F (stereo partly drawn) [SiaFiBu, Methyl 5-(isobutylcarbamado)-2,4,7,8,9-penta-O-acetyl-3,5-dideoxy-3-fluoro-D-glycero-β-galacto-non-2-ulopyranosonate] | 3.33 ± 0.12 | 15.1 ± 3.7 | 24.4 ± 2.95 | 36.1 ± 6.4 | 0.5 ± 1.34 | 0.62 ± 1.77 | 11.4 ± 4.73 | 9.61 ± 4.83 | 51.8 ± 18.7 | 51.1 ± 8.97 | 5.15 ± 2.4 | 4.32 ± 1.82 |
| COC(=O)C1(OC(C)=O)OC([C@H](OC(C)=O)[C@@H](COC(C)=O)OC(C)=O)[C@H](NC(=O)OC(C)(C)C)C(OC(C)=O)C1F (stereo partly drawn) [SiaFBoc, Methyl 5-(tert-butoxycarbamado)-2,4,7,8,9-penta-O-acetyl-3,5-dideoxy-3-fluoro-D-glycero-β-galacto-non-2-ulopyranosonate] | 3.48 ± 0.56 | 8.21 ± 0.67 | 36.5 ± 3.81 | > 102 | 1.28 ± 1.36 | 1.72 ± 2.3 | 10.4 ± 4.76 | 28 ± 2.57 | 54.6 ± 3.22 | 50.3 ± 3.99 | 12.8 ± 1.61 | 20.6 ± 1.95 |
| COC(=O)C1(OC(C)=O)OC([C@H](OC(C)=O)[C@@H](COC(C)=O)OC(C)=O)[C@H](NC(=O)CCl)C(OC(C)=O)C1F (stereo partly drawn) [SiaFAcC, Methyl 5-(chloroacetamido)-2,4,7,8,9-penta-O-acetyl-3,5-dideoxy-3-fluoro-D-glycero-β-galacto-non-2-ulopyranosonate, reference compound] | 18 ± 2.12 | – | – | – | – | – | – | – | – | – | – | – |
| C#CCCC(=O)N[C@@H]1C(OC(C)=O)C(F)C(OC(C)=O)(C(=O)OC)OC1[C@H](OC(C)=O)[C@@H](COC(C)=O)OC(C)=O (stereo partly drawn) [SiaFPen, Methyl 5-(4-pentynacetamido)-2,4,7,8,9-penta-O-acetyl-3,5-dideoxy-3-fluoro-D-glycero-β-galacto-non-2-ulopyranosonate, reference compound] | 40.6 ± 5.67 | 52.5 ± 4.31 | > 102 | > 102 | 10.4 ± 2.14 | 12.6 ± 3.51 | 26.2 ± 2.37 | 44.7 ± 4.33 | > 102 | > 102 | 62.3 ± 3.91 | 51.2 ± 6.06 |
| COC(=O)N[C@@H]1C(OC(C)=O)C(F)C(OC(C)=O)(C(=O)OC)OC1[C@H](OC(C)=O)[C@@H](COC(C)=O)OC(C)=O (stereo partly drawn) [SiaFMe, Methyl 5-(methylcarbamado)-2,4,7,8,9-penta-O-acetyl-3,5-dideoxy-3-fluoro-D-glycero-β-galacto-non-2-ulopyranosonate] | 4.89 ± 0.25 | 7.54 ± 1.34 | 18.3 ± 2.67 | 29.6 ± 4.67 | 1.98 ± 0.91 | 2.65 ± 1.6 | 3.31 ± 1.24 | 4.77 ± 2.8 | 59.2 ± 4.17 | 52.7 ± 5.45 | 6.33 ± 3.26 | 5.23 ± 1.88 |
| CCCCOC(=O)N[C@@H]1C(OC(C)=O)C(F)C(OC(C)=O)(C(=O)OC)OC1[C@H](OC(C)=O)[C@@H](COC(C)=O)OC(C)=O (stereo partly drawn) [SiaFnBu, Methyl 5-(butylcarbamado)-2,4,7,8,9-penta-O-acetyl-3,5-dideoxy-3-fluoro-D-glycero-β-galacto-non-2-ulopyranosonate] | 7.45 ± 0.92 | 7.91 ± 1.95 | – | – | – | – | – | – | – | – | – | – |
| COC(=O)C1(OC(C)=O)OC([C@H](OC(C)=O)[C@@H](COC(C)=O)OC(C)=O)[C@H](NC(=O)COC(C)=O)C(OC(C)=O)C1F (stereo partly drawn) [SiaFGc, Methyl 5-(acetoxyamido)-2,4,7,8,9-penta-O-acetyl-3,5-dideoxy-3-fluoro-D-glycero-β-galacto-non-2-ulopyranosonate] | 4.98 ± 0.33 | 11.8 ± 2.27 | > 102 | > 102 | 4.24 ± 2 | 5.94 ± 2.18 | 53.6 ± 5.25 | 54.1 ± 15.3 | > 102 | > 102 | 16.6 ± 3.91 | 12.5 ± 2.52 |
| COC(=O)C1(OC(C)=O)OC([C@H](OC(C)=O)[C@@H](COC(C)=O)OC(C)=O)[C@H](NC(=O)C(F)(F)F)C(OC(C)=O)C1F (stereo partly drawn) [SiaFTFA, Methyl 5-(trifluoroacetamido)-2,4,7,8,9-penta-O-acetyl-3,5-dideoxy-3-fluoro-D-glycero-β-galacto-non-2-ulopyranosonate, reference compound] | 14.3 ± 0.77 | 33.3 ± 2.63 | 46.5 ± 4.41 | > 102 | 3.3 ± 1.26 | 7.19 ± 3.6 | 42.8 ± 2.38 | 41.4 ± 10.4 | > 102 | > 102 | 25.5 ± 2.61 | 33.4 ± 4.38 |
| C#CCOC(=O)N[C@@H]1C(OC(C)=O)C(F)C(OC(C)=O)(C(=O)OC)OC1[C@H](OC(C)=O)[C@@H](COC(C)=O)OC(C)=O (stereo partly drawn) [SiaFPoc, Methyl 5-(propargylcarbamado)-2,4,7,8,9-penta-O-acetyl-3,5-dideoxy-3-fluoro-D-glycero-β-galacto-non-2-ulopyranosonate] | 0.72 ± 0.2 | 2.59 ± 0.07 | 10.7 ± 2.85 | 40.2 ± 6.56 | 0.42 ± 0.9 | 0.44 | 1.19 ± 1.47 | 5.42 ± 1.4 | 51 ± 8.62 | 51.6 ± 2.62 | 1.65 ± 2.27 | 1.37 ± 0.81 |
